Source: patent publication US20100158829A1, “Method and Composition for Color Modulation” (Conopco, Inc., d/b/a UNILEVER, priority 2008, published 2010)

How the values were obtained:
D-dopachrome tautomerase = D-dopachrome tautomerase (Homo sapiens, UniProt P30046); experiment: D-dopachrome tautomerase (DDT) enzyme assay with D-dopachrome substrate; format: biochemical; details: for IC50: DDT assays similar to those described in Example 2; for D-Dopachrome Tautomerase at 100 μM (% of control): test compound 100 μM, remaining activity, 100% = inactive
Description: A 125-mM sodium periodate working solution was prepared in H2O in an amber 5-mL vial (prepared fresh on the day of the assay). 4.3 mg of dihydroxy-D-phenylalanine (D-dopa) were weighed into a 20 mL scintillation vial equipped with a pierceable septa screw cap. With the use of a liquid transfer cannula, 12 mL of degassed buffer was first transferred into a 15 mL graduated conical tube and subsequently poured into the scintillation vial containing the D-dopa. The D-dopa was dissolved for ten (10) minutes while stirring under nitrogen. The resulting working solution was 1.8 mM. Once sodium periodate was added to the dissolved D-dopa, the resulting D-dopachrome was utilized immediately to prevent substrate degradation.
Concentrations were based on a final reaction volume of 200 μL. A total of 75 μL of buffer (100 mM potassium phosphate, pH 6.8) was added to each well of a clear flat bottom 96-well microtiter plate. To the blank control wells (no DDT), 25 μL of 10% glycerol/assay buffer was added. DMSO (5 μL) was added to blank wells and to the enzyme control wells (DDT alone with no inhibitors). […] To the remaining wells, 5 μL of test compounds diluted in DMSO was added for a final concentration of 100 μM. Lastly, 25 μL of DDT in assay buffer was added to all wells except for the substrate control wells. The concentration of DDT utilized was such that it produced a ΔOD475 of approximately 1.0 at the 40-second read time point between the blank and total.
With the use of a 1 mL syringe, 0.33 ml of the 125 mM sodium periodate working solution was added to the dissolved D-dopa and stirred for 30 seconds. The resulting D-dopachrome was transferred to a reagent reservoir and 100 μL immediately added to the first row of interest in the assay plate (resulting final substrate concentration in the assay is 0.9 mM). The plate was shaken for 2 seconds on a Spectromax plate reader and the decrease in absorbance measured over 40 seconds. 100 μL of D-dopachrome was added to the next row of interest in the assay plate and this procedure was repeated until four (4) rows were assayed and read. Often approximately 6-7 minutes, the remaining substrate was discarded.
Percent inhibition was calculated utilizing the OD values at the 40-second time point according to the following formula:
• A=percent inhibition of the unknown; • B=average percent inhibition for the 4 positive control values (within 4 distinct assay rows) generated with a single batch of substrate also used to assay the unknown of interest; • C=percent inhibition for the positive control for the assay row of interest which contains the unknown compound of interest.

[1] = tested on: Melanoderm tissue equivalent model MEL-300 containing melanocytes; experiment: Melanoderm tissue equivalent model, total melanin content; format: cell-based; details: 10 μM in maintenance medium, 14 days
Description: Melanoderm™ tissue equivalent model MEL-300 (MatTek: Ashland, Mass.) containing melanocytes obtained from dark skin individuals were cultured as per supplier instructions. Components were added to the maintenance medium phase (no topical treatments) at a final concentration of 10 μM for 14 days at which time the experiment was terminated and the tissues assessed for melanin content. Medium and treatments were changed three times per week. DMSO was utilized as the vehicle control and all treatments were performed in duplicate.
For quantification of total melanin, each Melanoderm was placed into an individual Eppendorf tube (2 mL) into which 250 μL of Solvable™ tissue solubilizer (Packard Bioscience Co., Cat#6NE9100) was added. Each tube was vortexed and incubated at 60° C. for 18 hours. After about […], each sample was centrifuged (5-minutes at 13,000 RPMs) to remove any particulates. One hundred μL of supernatant were transferred to a 96 well microtiter plate and the absorbance read at 490 nm. Total melanin content was calculated from a standard curve using synthetic melanin (Sigma Cat#M8631).
All the following components were tested at a final concentration of 10 μM: […]

mushroom tyrosinase [2] = experiment: Mushroom tyrosinase assay with L-dopa; format: biochemical; details: for Mushroom Tyrosinase at 100 μM (% of control): test compound 100 μM, percent of untreated control reaction
Description: A stock solution of 10 mM L-dopa (3,4-Dihydroxyphenylalanine, Sigma Cat #D9628) was prepared in sodium phosphate buffer (100 mM, pH 7.0) along with a stock solution of 0.1 mg/mL (605 units/ml) mushroom tyrosinase (Sigma cat #T7755) in phosphate buffer and stored at […] 4° C. until use.
Test compounds (dissolved in DMSO) were first diluted in phosphate buffer to working concentrations of 1 mM. For each test, 150 μL of phosphate buffer, 10 μL of the L-dopa stock and 20 μL of each compound were added to each well of a 96 well clear bottom microtiter plate and mixed three times. 20 μL of mushroom tyrosinase stock solution was added, mixed and the absorbency read at 475 nm at 0, 2, 4, and 6.5 minutes. The points were plotted as absorbency vs. time and the slope of the line calculated. Values are expressed as the percent of the respective untreated control reaction. The final DMSO concentration in each sample was less than or equal to 1.0%

mushroom tyrosinase [3] = experiment: Mushroom tyrosinase assay with L-dopa; format: biochemical; details: Tested at 1 μM

Sequence of D-dopachrome tautomerase (P30046 2-118 limits assumed): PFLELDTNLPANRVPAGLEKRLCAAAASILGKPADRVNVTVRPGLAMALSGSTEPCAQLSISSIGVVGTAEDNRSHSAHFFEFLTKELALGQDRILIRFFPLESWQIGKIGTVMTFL

Compound | D-Dopachrome Tautomerase at 100 μM (% of control) (D-dopachrome tautomerase) | Mushroom Tyrosinase at 100 μM (% of control) (mushroom tyrosinase [2]) | also measured
sodium isostearoyl lactylate |  |  | IC50 (D-dopachrome tautomerase): 14.6 µM; Reduction in Melanin [1]: 6.2%
CCCCC/C=C\C/C=C\C/C=C\C/C=C\CCCC(=O)O [arachidonic acid, reference compound] |  |  | inhibition at 75 µM (D-dopachrome tautomerase; 75 μM final concentration, read-out: inhibition of DDT (positive control)): ~50%
CC(C)(C)NC(=O)C(c1ccc(F)cc1)N(C(=O)c1snc(C(N)=O)c1N)c1cccc(F)c1 (stereo not drawn) [N5-((tert-butylcarbamoyl)(4-fluorophenyl)methyl)-4-amino-N5-(3-fluorophenyl)isothiazole-3,5-dicarboxamide] | 48.0% of control | 106.1% of control | 
O=C1C=CC(=O)c2c(O)cccc21 [Juglone, 5-hydroxy-1,4-naphthalenedione] |  |  | IC50 (D-dopachrome tautomerase): 14.9 µM; Reduction in Melanin [1]: 32.8%
O=c1c(-c2cc(O)c(O)c(O)c2)coc2cc(O)c(O)c(O)c12 [Irigenol, 5,6,7-trihydroxy-3-(3,4,5-trihydroxyphenyl)-4H-1-benzopyran-4-one] |  |  | IC50 (D-dopachrome tautomerase): 37.4 µM; Reduction in Melanin [1]: 7.0%
CCCC(C(=O)NC(C)(C)C)N(Cc1ccccc1Cl)C(=O)c1snc(C(N)=O)c1N (stereo not drawn) [N-5-(1-(tert-butylcarbamoyl)butyl)-N5-(2-chlorobenzyl)-4-aminoisothiazole-3,5-dicarboxamide] | 64.3% of control | 102.5% of control | 
O=c1c(O)c(-c2ccc(O)cc2O)oc2cc(O)cc(O)c12 [Morin, 2-(2,4-dihydroxyphenyl)-3,5,7-4H-1-benzopyran-4-one] |  |  | IC50 (D-dopachrome tautomerase): 27.4 µM; Reduction in Melanin [1]: 7.2%
CC(C)CC(C(=O)NC1CCCC1)N(C(=O)c1snc(C(N)=O)c1N)c1ccccc1 (stereo not drawn) [N5-(1-(cyclopentylcarbamoyl)-3-methylbutyl)-4-amino-N5-phenylisothiazole-3,5-dicarboxamide] | 69.2% of control | 89.4% of control | 
CCc1ccc(O)cc1O [4-Ethyl Resorcinol, reference compound] | 100% of control |  | activity in the DDT assay (in words) (D-dopachrome tautomerase): inactive; inhibition of mushroom tyrosinase (in words) (mushroom tyrosinase [2]): potent inhibitor; Mushroom Tyrosinase (% of control) (mushroom tyrosinase [3]): 42.3% of control
NC(=O)c1nsc(C(=O)N(c2ccccc2)C(C(=O)NC2CCCC2)c2cccs2)c1N (stereo not drawn) [N5-((cyclopentylcarbamoyl)(thiophen-2-yl)methyl)-4-amino-N5-phenylisothiazole-3,5-dicarboxamide] | 66.8% of control | 101.8% of control | 
CC(C)CC(C(=O)NC1CCCC1)N(C(=O)c1snc(C(N)=O)c1N)c1ccc(F)cc1 (stereo not drawn) [N5-(1-(cyclopentylcarbamoyl)-3-methylbutyl)-4-amino-N5-(4-fluorophenyl)isothiazole-3,5-dicarboxamide] | 65.7% of control | 100.6% of control | 
CNC(=O)c1ccccc1NC(=O)c1c(O)nc2c(c1O)CCCC2 [N-(2-(methylcarbamoyl)phenyl)-5,6,7,8-tetrahydro-2,4-dihydroxyquinoline-3-carboxamide] | 65.3% of control | 100.0% of control | 
CC(C)(C)NC(=O)C(c1c[nH]c2ccccc12)N(C(=O)c1snc(C(N)=O)c1N)c1ccccc1 (stereo not drawn) [N5-((tert-butylcarbamoyl)(1H-indol-3-yl)methyl)-4-amino-N5-phenylisothiazole-3,5-dicarboxamide] | 40.9% of control | 96.0% of control | 
O=C(O[C@@H]1Cc2c(O)cc(O)cc2O[C@@H]1c1cc(O)c(=O)c2c(O)c(O)cc([C@H]3Oc4cc(O)cc(O)c4C[C@H]3OC(=O)c3cc(O)c(O)c(O)c3)c2c1)c1cc(O)c(O)c(O)c1 [Theaflavin Digallate] |  |  | Reduction in Melanin [1]: 26.6%

Continued, in another order:

D-Dopachrome Tautomerase at 100 μM (% of control) (D-dopachrome tautomerase) | Mushroom Tyrosinase at 100 μM (% of control) (mushroom tyrosinase [2]) | Compound | also measured
8.4% of control | 88.2% of control | CC(C)(C)C1CCc2c(sc(NC(=O)/C=C/C(=O)O)c2C#N)C1 (stereo not drawn) [(E)-3-(6-tert-butyl-3-cyano-4,5,6,7-tetrahydrobenzo[b]thiophen-2-ylcarbamoyl)acrylic acid] | 
52.3% of control | 101.9% of control | CC(C)(C)NC(=O)C(c1ccc(F)cc1)N(C(=O)c1snc(C(N)=O)c1N)c1ccccc1 (stereo not drawn) [N5-((tert-butylcarbamoyl)(4-fluorophenyl)methyl)-4-amino-N5-phenylisothiazole-3,5-dicarboxamide] | 
14.9% of control | 90.8% of control | CCOC(=O)c1c(NC(=O)/C=C/C(=O)O)sc2c1CCC(C(C)(C)CC)C2 (stereo not drawn) [(E)-3-(3-(ethoxycarbonyl)-6-tert-pentyl-4,5,6,7-tetrahydrobenzo[b]thiophen-2-ylcarbamoyl)acrylic acid] | 
40.5% of control | 89.4% of control | CCc1ccc(NC(=O)/C=C/C(=O)O)cc1 [(E)-3-(4-ethylphenylcarbamoyl)acrylic acid] | 
56.1% of control | 99.3% of control | Oc1nc2cc(I)c(I)cc2o1 [5,6-diiodobenzo[d]oxazol-2-ol] | 
69.9% of control | 98.6% of control | CC(C)(C)NC(=O)C(c1ccc(F)cc1)N(Cc1ccccc1)C(=O)c1snc(C(N)=O)c1N (stereo not drawn) [N5-((tert-butylcarbamoyl)(4-fluorophenyl)methyl)-4-amino-N5-benzylisothiazole-3,5-dicarboxamide] | 
64.9% of control | 105.2% of control | CC(C)CC(C(=O)NC1CCCC1)N(C(=O)c1snc(C(N)=O)c1N)c1cccc(F)c1 (stereo not drawn) [N5-(1-(cyclopentylcarbamoyl)-3-methylbutyl)-4-amino-N5-(3-fluorophenyl)isothiazole-3,5-dicarboxamide] | 
